We go through six compounds from ChEMBL document CHEMBL4715764, “ArgTX-636, a polyamine isolated from spider venom: A novel class of melanogenesis inhibitors” (Bioorg Med Chem, 2016).

By IC50 is commonly meant the concentration needed to halve the response being measured. A lower IC50 goes with inhibition by little substance. The term Ki denotes the dissociation constant of the complex between target and ligand, obtained from inhibition or displacement.

For data set [1], the target named is T1, Mushroom tyrosinase (Agaricus bisporus, UniProt O42713+Q00024+C7FF04+C7FF05).
Description: Inhibition of diphenolase activity of mushroom tyrosinase using L-DOPA substrate
In data set [2] the test system is B16-F10. The data set is described as follows: Reduction in alpha-MSH-induced TRP-1 expression in mouse B16-F10 cells at 0.041 uM incubated for 48 hrs by Western blot analysis. The format is functional, cell-based. (In western blotting, separated proteins are transferred to a membrane and probed.)
Data set [3] deals with B16-F10. The data set is described as follows: Reduction in alpha-MSH-induced tyrosinase expression in mouse B16-F10 cells at 0.041 uM incubated for 48 hrs by Western blot analysis. The format is functional, cell-based.
Data set [4] relates to B16-F10. The data set is described as follows: Inhibition of melanin production in mouse B16-F10 cells incubated for 48 hrs. The conditions noted are these: dose 0-0.0421 µM. The format is functional, cell-based.
For data set [5], the target named is T1, Mushroom tyrosinase. The data set is described as follows: (§1) Inhibition of mushroom tyrosinase using L-DOPA as substrate measured for 15 mins by UV-vis spectrophotometry.
Data set [6] addresses T2, Mushroom tyrosinase (Agaricus bisporus) (UniProt O42713+Q00024+C7FF04+C7FF05). Described as §1.
Data set [7] concerns the target T1, Mushroom tyrosinase. The data set is described as follows: (§2) Inhibition of mushroom tyrosinase using DHICA as substrate measured for 15 mins by UV-vis spectrophotometry.
In data set [8] the target is T2, Mushroom tyrosinase (Agaricus bisporus). The description is as §2.
Data set [9] deals with M4Beu cell line. The data set is described as follows: Cytotoxicity against human M4Be cells assessed as reduction in cell viability at 42.1 uM incubated for 6 hrs by MTT assay. The format is cell-based.
Data set [10] has as its system B16-F10. The data set is described as follows: Cytotoxicity against mouse B16-F10 cells assessed as reduction in cell viability at 42.1 uM incubated for 6 hrs by MTT assay. The format is cell-based. Conditions: b16-f10, 6 h.
The target in data set [11] is T3, Tyrosinase (Mus musculus) (UniProt P11344).
T3 sequence (whole entry): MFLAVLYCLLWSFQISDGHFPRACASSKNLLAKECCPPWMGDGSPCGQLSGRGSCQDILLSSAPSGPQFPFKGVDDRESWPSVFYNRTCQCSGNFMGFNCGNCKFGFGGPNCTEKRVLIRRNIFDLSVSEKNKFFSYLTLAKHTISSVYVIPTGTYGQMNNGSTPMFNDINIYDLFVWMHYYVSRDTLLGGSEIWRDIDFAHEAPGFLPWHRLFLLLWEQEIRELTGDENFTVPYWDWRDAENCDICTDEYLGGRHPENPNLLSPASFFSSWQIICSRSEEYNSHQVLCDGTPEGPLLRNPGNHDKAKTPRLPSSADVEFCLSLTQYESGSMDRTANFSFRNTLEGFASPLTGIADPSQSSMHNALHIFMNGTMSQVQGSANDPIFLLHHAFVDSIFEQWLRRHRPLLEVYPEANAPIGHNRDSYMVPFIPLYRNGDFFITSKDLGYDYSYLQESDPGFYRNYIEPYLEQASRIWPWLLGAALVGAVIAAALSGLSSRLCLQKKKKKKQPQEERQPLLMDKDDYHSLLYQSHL
The data set is described as follows: Inhibition of tyrosinase in mouse B16-F10 cells at 0.421 uM using L-DOPA as substrate incubated for 30 mins followed by substrate addition and measured after 40 mins. Conditions: time 70.0 min. The class given is cell-based.

In data set [12] the target is T1, Mushroom tyrosinase. The data set is described as follows: Mixed type inhibition of mushroom tyrosinase using L-DOPA as substrate assessed as inhibitory constant measured for 15 mins by UV-vis spectrophotometry based Line-weaver Burk plot analysis.
Data set [13] deals with T1, Mushroom tyrosinase. The data set is described as follows: Mixed type inhibition of mushroom tyrosinase using L-DOPA as substrate assessed as enzyme-substrate complex constant measured for 15 mins by UV-vis spectrophotometry based Line-weaver Burk plot analysis.

Activity calls are given as the source filed them. The calls are words filed in the database; no cut-off is given here.

In turn, `OC1COC(O)C(O)C1O` (racemic) returned a half-maximal inhibitory concentration (IC50) in data set [1] of 100 µM.

As to `N=C(N)NCCC[C@H](N)C(=O)NCCCNCCCNCCCCCNC(=O)[C@H](CC(N)=O)NC(=O)Cc1ccc(O)cc1O`, the inhibition entry in [2] and in data set [11] was “Active” in each case. For the same compound, the inhibition entry in data set [3] was “inactive”. In addition, the inhibition result in data set [4], in [6] and in data set [8] was “Dose-dependent effect” in each case. The figures for the IC50 in data set [5] and in [7] were 8.34 µM and 48.22 µM, respectively. Moreover, the Activity result in data set [9] and in [10] was “Non-Toxic” throughout. Further, the results for the Ki in data set [12] and in data set [13] were 10.77 µM and 20.36 µM, respectively.

On to `S=C1NCC(c2ccccc2)O1` (configuration not stated), for which, in [1], the IC50 came to 42 µM.

The compound `O=C(O)/C=C/c1ccc(Cn2ccnc2)cc1` [OZAGREL] yielded a concentration for half-maximal inhibition (IC50) in [1] of 3450 µM.

As to `CC1(C)C=Cc2c(cc3c(c2O)C(=O)CC(c2ccc(O)cc2O)O3)O1` (configuration not stated) [DALENIN], the 50% inhibitory concentration (IC50) in data set [1] was found to be 18.61 µM.

In turn, `CC1(C)S[C@@H]2[C@H](NC(=O)[C@H](N)c3ccc(O)cc3)C(=O)N2[C@H]1C(=O)O` [AMOXICILLIN] yielded an IC50 in data set [1] of 9000 µM.
